From article PMC3071374, “High Throughput Screens Yield Small Molecule Inhibitors of Leishmania CRK3:CYC6 Cyclin-Dependent Kinase” (PLoS Neglected Tropical Diseases, 2011)
Where two headings read alike, the source gives them in different places.

How the values were obtained:
WT amastigote L. major = assay: Intra-macrophage L. major amastigote assay; type: cell-based; conditions: for IC50: read-out: IC50 against WT amastigote L. major
Experimental: Macrophages were harvested from the peritoneum of Balb/C mice, centrifuged at 1000× g for 10 minutes at 4°C and resuspended in fresh RPMI 1640 media supplemented with 10% HIFCS and 1% (v/v) Gentamicin, as described previously. Macrophages were diluted to a cell density of 5×10^5 cells ml^-1 in RPMI supplemented with 10% HIFCS and 100 μl were added to each well of a 16-well Lab-tek cavity slide (50,000 mφ/well) and incubated at 37°C, 5% CO2 for subsequent experiments. […] Inhibitors were set up in a five-fold dilution series in RPMI 1640 medium supplemented with 10% […] of inhibitor were added to the wells in serial dilution and slides incubated for 72 hours at 37°C with 5% CO2. After 72 hours the medium was removed and replaced with fresh medium containing the same concentrations of inhibitors and incubated for a further 48 hours at 37°C with 5% CO2. At the end of the incubation period, the medium was removed, the slides were washed twice with fresh RPMI 1640 medium supplemented with 10% HIFCS then fixed with 100% methanol and stained with 10% Giemsa's stain for 10 minutes. The percentage of infected macrophages and number of amastigotes per macrophage were determined by light microscopy under oil immersion.

CDK4:CYCD1 = CDK4:CYCD1 (Homo sapiens, UniProt P11802); assay: Mammalian protein kinase assay, CDK4:CYCD1; type: biochemical; conditions: Lexicon azapurine HTS hits
Sequence of CDK4:CYCD1 (P11802 whole entry): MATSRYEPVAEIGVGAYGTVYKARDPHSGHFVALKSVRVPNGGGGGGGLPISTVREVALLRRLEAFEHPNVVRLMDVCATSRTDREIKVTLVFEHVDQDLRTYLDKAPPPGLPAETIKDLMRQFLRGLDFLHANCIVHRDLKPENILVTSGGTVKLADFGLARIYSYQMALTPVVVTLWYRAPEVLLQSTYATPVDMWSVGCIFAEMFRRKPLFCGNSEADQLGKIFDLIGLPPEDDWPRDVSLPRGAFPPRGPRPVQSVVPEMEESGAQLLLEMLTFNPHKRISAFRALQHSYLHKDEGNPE
Sequence of CDK4:CYCD1 (P24385 whole entry partner): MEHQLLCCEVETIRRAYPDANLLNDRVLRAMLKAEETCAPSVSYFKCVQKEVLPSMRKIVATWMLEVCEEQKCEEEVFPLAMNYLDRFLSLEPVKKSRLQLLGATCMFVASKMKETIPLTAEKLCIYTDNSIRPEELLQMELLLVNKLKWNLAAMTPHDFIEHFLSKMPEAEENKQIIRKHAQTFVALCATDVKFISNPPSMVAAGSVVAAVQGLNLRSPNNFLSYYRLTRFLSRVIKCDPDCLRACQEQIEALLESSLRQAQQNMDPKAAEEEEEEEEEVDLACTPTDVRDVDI
Experimental: (§1) Leishmania CRK3:CYC6 protein kinase assays were performed in 96-well microtiter plates in a final volume of 25 µl. Each assay point contained 7.5 ng of co-expressed histidine-tagged CRK3:CYC6 protein kinase complex (hereafter referred to as CRK3:CYC6) diluted in enzyme dilution buffer (EDB) (20 mM Tris-HCl pH 7.2, 0.5 mg ml^−1 BSA, 2.5% glycerol and 0.006% Brij-35). Assays were performed using the assay development buffer (ADB) (20 mM MOPS, pH 7.0, 25 mM β-glycerophosphate, 5 mM EGTA, 1 mM NaVO3, 1 mM DTT and 15 mM MgCl2) supplemented with 100 µM ATP, 0.5 µCi of γ-^32P ATP per reaction and histone H1 as a substrate used at 0.4 mg ml^−1. Two and three-fold titrations were set up to determine the concentration of enzyme to be used per assay point (7.5 ng) and to determine the concentrations of selected inhibitors required for 50% inhibition of Leishmania CRK3:CYC6 protein kinase activity (IC50 values), respectively. For IC50 determinations, assay mixes contained DMSO to a final concentration of 2%. Mammalian protein kinase assays were carried out according to the assay protocols developed at Cyclacel. Assays were carried out for 30 minutes at 30°C before stopping the reaction by the addition of an equal volume (25 µl) of 75 mM orthophosphoric acid. Samples were spotted onto a p81 cellulose filterplate (Nunc) and a vacuum applied. Wells were washed 3×200 µl with 75 mM phosphoric acid and the bottom of the plate sealed. 50 µl of Microscint 40 (Perkin Elmer) was added per well before incorporation of radioactivity was determined on a Topcount microplate scintillation counter.

WT promastigote L. major = assay: L. major promastigote growth inhibition assay (resazurin); type: cell-based; conditions: for IC50: 5 days at 25°C, read-out: IC50 against WT promastigote L. major
Experimental: L. major wild type promastigotes (Friedlin strain: WHO designation MHOM/JL/81/Friedlin) were grown at 25°C in HOMEM medium (Invitrogen cat no. 041-94699111) supplemented with 10% (v/v) heat inactivated foetal calf serum (HIFCS) and 1% (v/v) penicillin/streptomycin antibiotics.
CRK3 inhibitors were diluted into HOMEM medium supplemented with 10% HIFCS at twice the final screening concentration. Five-fold or ten-fold serial dilutions were carried out into HOMEM medium supplemented with 10% HIFCS. 100 µl of each drug concentration were added to a 96 well plate in duplicate. 100 µl of five-fold or ten-fold serial dilutions of 1 mM Pentamidine (Sigma) and an equivalent volume of 100% DMSO were included as positive and negative controls, in duplicate, respectively. L. major promastigote cells were diluted to a cell density of 2×10^6 cells ml^−1 in HOMEM media supplemented with 10% HIFCS and 100 µl added to all wells in 96 well plates. Plates were sealed with parafilm and incubated for 5 days at 25°C. After 5 days, 20 µl of filter sterile resazurin solution (12.5 mg resazurin salt in 100 ml PBS) (Sigma) was added to each of the wells and the plate incubated for a further 24 hours at 25°C. Fluorescence was measured using an Envision plate reader (Perkin Elmer) at 540 nm excitation wavelength and 590 nm emission wavelength.

Leishmania CRK3:CYC6 = Leishmania CRK3:CYC6 (Leishmania major, UniProt O96526); type: biochemical
Sequence of Leishmania CRK3:CYC6 (Q4Q4U0 entry or part of it): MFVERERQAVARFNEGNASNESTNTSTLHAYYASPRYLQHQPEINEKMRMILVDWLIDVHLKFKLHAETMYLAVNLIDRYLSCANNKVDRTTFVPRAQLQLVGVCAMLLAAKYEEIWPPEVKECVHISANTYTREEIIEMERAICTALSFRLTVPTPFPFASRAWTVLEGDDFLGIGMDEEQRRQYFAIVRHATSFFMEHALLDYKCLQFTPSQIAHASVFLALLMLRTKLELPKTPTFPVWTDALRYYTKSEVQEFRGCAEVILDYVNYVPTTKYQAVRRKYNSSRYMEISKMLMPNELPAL
Sequence of Leishmania CRK3:CYC6 (O96526 entry or part of it): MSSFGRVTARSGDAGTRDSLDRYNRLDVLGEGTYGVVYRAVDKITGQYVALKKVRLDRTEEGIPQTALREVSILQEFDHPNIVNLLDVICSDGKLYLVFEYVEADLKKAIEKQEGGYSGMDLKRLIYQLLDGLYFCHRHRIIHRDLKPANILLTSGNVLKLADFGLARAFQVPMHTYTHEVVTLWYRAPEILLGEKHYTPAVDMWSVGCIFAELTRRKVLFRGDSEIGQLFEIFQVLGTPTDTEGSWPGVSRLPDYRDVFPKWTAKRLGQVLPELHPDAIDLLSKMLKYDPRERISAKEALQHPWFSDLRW
Experimental: as §1

[1] = Lexicon azapurine HTS hits, infected peritoneal macrophages
[2] = Lexicon azapurine HTS hits, maximum concentration tested 10 µM
[3] = re-synthesised Lexicon azapurine hits
[4] = synthesised azapurine derivatives
[5] = synthesised azapurine derivatives, infected peritoneal macrophages

Compound | IC50 (WT amastigote L. major; [1]) | IC50 (CDK4:CYCD1) | IC50 (WT promastigote L. major; [2]) | IC50 (Leishmania CRK3:CYC6; Lexicon azapurine HTS hits) | also measured
COc1ccc(-n2nnc3c(N4CCCC(O)C4)nc(CC4CCCCC4)nc32)cc1 (racemic) [Compound 5] | > 50 µM | 9.7 µM | 8.6 µM | 5.3 µM | activity towards the amastigote life cycle stage (in words) (WT amastigote L. major): no activity; IC50 (Leishmania CRK3:CYC6; [3]): 4.2 µM
COc1ccc(Cn2nnc3c(N4CCCC(O)C4)nc(CC4CCCCC4)nc32)cc1 (racemic) [Compound 19] |  |  |  |  | activity towards promastigote L. major (in words) (WT promastigote L. major): showed a range of activity; IC50 (WT promastigote L. major; [4]): 5 to 50 µM; IC50 (Leishmania CRK3:CYC6; [4]): > 50 µM
COc1ccc(-n2nnc3c(N4CCCC(O)C4)nc(Cc4ccccc4)nc32)cc1 (racemic) [Compound 29] |  |  |  |  | activity against amastigotes (in words) (WT amastigote L. major; [5]): Activity observed at 25 μM; activity towards promastigote L. major (in words) (WT promastigote L. major): showed a range of activity; inhibition of parasite growth in culture (in words) (WT promastigote L. major; promastigotes and intra-macrophage amastigotes in culture): inhibited parasite growth in culture; IC50 (WT promastigote L. major; [4]): 38.7 µM; inhibition of CRK3/CYC6 in vitro (in words) (Leishmania CRK3:CYC6): did not inhibit; IC50 (Leishmania CRK3:CYC6; [4]): > 100 µM
OC1CCCN(c2nc(CC3CCCCC3)nc3c2nnn3Cc2ccc(F)cc2)C1 (racemic) [Compound 33] |  |  |  |  | IC50 (WT amastigote L. major; [5]): > 50 µM; IC50 (WT promastigote L. major; [4]): > 50 µM; IC50 (Leishmania CRK3:CYC6; [4]): 47.6 µM
COc1ccc(-n2nnc3c(N(C)CCN(C)C4c5ccccc5CC4O)nc(CC4CCCCC4)nc32)cc1 (stereo not drawn) [Compound 1] | > 50 µM | 12.5 µM | > 10 µM | 2.6 µM | 
CCCN(c1nc(CC2CCCCC2)nc2c1nnn2-c1ccc(OC)cc1)C1CCCC1N(C)C (stereo not drawn) [Compound 2] | 38.4 µM | 5.6 µM | > 10 µM | 3.4 µM | activity towards promastigote L. major (in words) (WT promastigote L. major): did not have activity
COc1ccc(-n2nnc3c(NCC(C)O)nc(CC4CCCCC4)nc32)cc1 (stereo not drawn) [Compound 3] | > 50 µM | 21.9 µM | > 10 µM | 4.4 µM | IC50 (Leishmania CRK3:CYC6; [3]): 24.2 µM
COc1ccc(-n2nnc3c(N(C)C4COCC4N(C)C)nc(CC4CCCCC4)nc32)cc1 (stereo not drawn) [Compound 4] | > 50 µM | 10.3 µM | > 10 µM | 4.4 µM | 
COc1ccc(-n2nnc3c(N4CCCC(CO)C4)nc(CC4CCCCC4)nc32)cc1 (stereo not drawn) [Compound 6] | > 50 µM | 9.2 µM | > 10 µM | 6.9 µM | IC50 (Leishmania CRK3:CYC6; [3]): 4.4 µM
COc1ccc(-n2nnc3c(N(C)C(CN4CCCCC4)c4ccccc4)nc(CC4CCCCC4)nc32)cc1 (stereo not drawn) [Compound 7] |  | 19.5 µM |  | 7.8 µM | 
CCC(CC)Nc1nc(CC2CCCCC2)nc2c1nnn2-c1ccc(OC)cc1 [Compound 8] |  | 26.9 µM |  | 8.1 µM | 
COc1ccc(-n2nnc3c(NC(C)C)nc(CC4CCCCC4)nc32)cc1 [Compound 9] |  | 19.8 µM |  | 8.8 µM | IC50 (Leishmania CRK3:CYC6; [3]): 37.9 µM
COc1ccc(-n2nnc3c(NC(Cc4ccccc4)Cn4nc(C)cc4C)nc(CC4CCCCC4)nc32)cc1 (stereo not drawn) [Compound 10] |  | 7.3 µM |  | 10.1 µM | 
COc1ccc(-n2nnc3c(N4CC(N5CCN(c6ccccn6)CC5)C4)nc(CC4CCCCC4)nc32)cc1 [Compound 11] |  | 6.7 µM |  | 10.3 µM | 
COc1ccc(-n2nnc3c(NC(CO)CC(C)C)nc(CC4CCCCC4)nc32)cc1 (stereo not drawn) [Compound 12] |  | 4.6 µM |  | 10.7 µM | 
